The record followed here is ChEMBL document CHEMBL1143098, “Design and synthesis of 6-amino-1,4-oxazepane-3,5-dione derivatives as novel broad spectrum anticonvulsants” (2008).

For assay [1], the species on record is Mus musculus. The experiment in a line: Anticonvulsant activity in ICR mouse after 30 mins by MES test. The class given is functional. The note with it: 0.5 h.
For assay [2], the species on record is Mus musculus. The experiment in a line: Anticonvulsant activity against pentylenetetrazole-induced seizure in ICR mouse after 30 mins. The class given is functional. Particulars: 0.5 h.

In general, ED50 refers to the dose that gives a 50% effect, or the effect in half of the subjects. The low end stands for an effect at a small dose, the high end for a need for a large dose. In the case of `O=C(NC1COCC(=O)N(O)C1=O)OCc1ccccc1` (stereo unspecified), the ED50 was determined as 93.8 mg/kg in the assay filed under Mus musculus [1] and 96.9 mg/kg in the assay listed under Mus musculus [2].

As for `CCCC(CCC)C(=O)O` [VALPROIC ACID], the ED50 is 271 mg/kg in the assay listed under Mus musculus [1] and 149 mg/kg in the assay listed under Mus musculus [2].

For `C=CCN1C(=O)COCC(NC(=O)OCc2ccccc2)C1=O` (stereo unspecified), the ED50 was found to be 70.3 mg/kg in the assay listed under Mus musculus [1] and 37.1 mg/kg in the assay filed under Mus musculus [2].

For `O=C(NC1COCC(=O)N(Cc2ccccc2)C1=O)OCc1ccccc1` (stereo unspecified), the ED50 in the assay listed under Mus musculus [1] was more than 100 mg/kg; in the assay filed under Mus musculus [2], 64.1 mg/kg.

Consider `O=C(NC1COCC(=O)N(Cc2ccco2)C1=O)OCc1ccccc1` (stereo unspecified), for which the results for the ED50 in the assay filed under Mus musculus [1] and in the assay filed under Mus musculus [2] were more than 100 mg/kg and 64.1 mg/kg, respectively.

Regarding `O=C(NC1COCC(=O)N(Cc2ccc(F)cc2)C1=O)OCc1ccccc1` (stereo unspecified), the values for the ED50 in the assay filed under Mus musculus [1] and in the assay filed under Mus musculus [2] were more than 100 mg/kg and 53.9 mg/kg, respectively.

For the compound `CC(C)CN1C(=O)COCC(NC(=O)OCc2ccccc2)C1=O` (stereo unspecified), the median effective dose (ED50) in the assay listed under Mus musculus [1] and in the assay filed under Mus musculus [2] was more than 100 mg/kg throughout.

Turning to `CCCCN1C(=O)COCC(NC(=O)OCc2ccccc2)C1=O` (stereo unspecified), the ED50 came to 93.8 mg/kg in the assay listed under Mus musculus [1] and 34.8 mg/kg in the assay filed under Mus musculus [2].

For `CCCN1C(=O)COCC(NC(=O)OCc2ccccc2)C1=O` (stereo unspecified), the ED50 in the assay listed under Mus musculus [1] and in the assay filed under Mus musculus [2] was more than 100 mg/kg in each case.

`O=C(NC1COCC(=O)N(C2CC2)C1=O)OCc1ccccc1` (stereo unspecified): the ED50 worked out at 87.5 mg/kg in the assay listed under Mus musculus [1] and 27 mg/kg in the assay listed under Mus musculus [2].

Take `CCCCCCN1C(=O)COCC(NC(=O)OCc2ccccc2)C1=O` (stereo unspecified): the ED50 in the assay filed under Mus musculus [1] was determined as 87.5 mg/kg; in the assay listed under Mus musculus [2] it was 35.6 mg/kg.

Consider `CN1C(=O)COCC(NC(=O)OCc2ccccc2)C1=O` (stereo unspecified), for which the ED50 in the assay filed under Mus musculus [1] worked out at 68.8 mg/kg; in the assay filed under Mus musculus [2], 41 mg/kg.

As to `O=C1COCC(NC(=O)OCc2ccccc2)C(=O)N1` (stereo unspecified), the ED50 in the assay filed under Mus musculus [1] amounted to 81.2 mg/kg; in the assay filed under Mus musculus [2], 55.1 mg/kg.
